For orientation: inhibition means how much of the control response was suppressed.

For test [1], the target named is MAP kinase-activated protein kinase 2 (Homo sapiens) (UniProt P49137). Description: Inhibition of human full length MAPKAPK2 expressed in baculovirus assessed as substrate phosphorylation using fluorescence-labelled peptides as substrate at 0.2 uM after 90 mins by microfluidic peptide phosphorylation assay.
Test [2] has as its target T1, Serine/threonine-protein kinase Sgk1 (Homo sapiens) (UniProt O00141).
T1 sequence (whole entry): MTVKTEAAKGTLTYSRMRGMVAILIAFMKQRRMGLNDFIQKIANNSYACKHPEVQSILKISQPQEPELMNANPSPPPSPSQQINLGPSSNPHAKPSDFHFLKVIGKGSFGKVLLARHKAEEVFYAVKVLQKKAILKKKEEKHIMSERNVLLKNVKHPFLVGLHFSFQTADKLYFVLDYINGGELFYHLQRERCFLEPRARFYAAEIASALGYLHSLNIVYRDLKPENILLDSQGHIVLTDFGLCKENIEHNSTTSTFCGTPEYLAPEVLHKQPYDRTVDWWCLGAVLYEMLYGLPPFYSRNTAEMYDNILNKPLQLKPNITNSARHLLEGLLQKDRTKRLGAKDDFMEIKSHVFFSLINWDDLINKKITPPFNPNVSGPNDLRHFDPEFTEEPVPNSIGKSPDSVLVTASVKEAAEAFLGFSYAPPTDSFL
Briefly: Inhibition of human truncated SGK1 expressed in baculovirus assessed as substrate phosphorylation using fluorescence-labelled peptides as substrate at 0.2 uM after 90 mins by microfluidic peptide phosphorylation assay.

In test [3] the target is Protein kinase C eta type (Homo sapiens) (UniProt P24723). As to conditions: 0.1 uM.
Sequence of Protein kinase C eta type (Homo sapiens) (P24723 whole entry): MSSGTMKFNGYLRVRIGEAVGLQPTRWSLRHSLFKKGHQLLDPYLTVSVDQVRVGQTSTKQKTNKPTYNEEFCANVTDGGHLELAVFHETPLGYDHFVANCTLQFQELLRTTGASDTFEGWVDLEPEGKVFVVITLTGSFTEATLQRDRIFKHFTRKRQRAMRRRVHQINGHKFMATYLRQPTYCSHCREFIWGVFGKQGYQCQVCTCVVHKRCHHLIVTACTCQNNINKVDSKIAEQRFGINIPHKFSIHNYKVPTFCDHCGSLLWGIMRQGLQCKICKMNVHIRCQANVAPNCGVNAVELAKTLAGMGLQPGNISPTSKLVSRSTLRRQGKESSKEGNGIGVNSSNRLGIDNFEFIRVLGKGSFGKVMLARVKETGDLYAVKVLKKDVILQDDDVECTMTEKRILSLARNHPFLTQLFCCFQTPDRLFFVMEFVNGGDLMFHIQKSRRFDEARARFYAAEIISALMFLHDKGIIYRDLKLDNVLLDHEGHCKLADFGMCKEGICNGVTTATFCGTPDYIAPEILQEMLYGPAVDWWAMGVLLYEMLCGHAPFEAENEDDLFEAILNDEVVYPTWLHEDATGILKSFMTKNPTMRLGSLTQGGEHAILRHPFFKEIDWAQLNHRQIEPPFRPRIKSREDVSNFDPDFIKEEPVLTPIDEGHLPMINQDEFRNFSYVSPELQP
Description: Inhibition of human truncated PKC eta expressed in baculovirus assessed as substrate phosphorylation using fluorescence-labelled peptides as substrate at 0.1 uM after 90 mins by microfluidic peptide phosphorylation assay
Test [4] concerns the target T2, Serine/threonine-protein kinase Sgk2 (Homo sapiens) (UniProt Q9HBY8).
T2 sequence (whole entry): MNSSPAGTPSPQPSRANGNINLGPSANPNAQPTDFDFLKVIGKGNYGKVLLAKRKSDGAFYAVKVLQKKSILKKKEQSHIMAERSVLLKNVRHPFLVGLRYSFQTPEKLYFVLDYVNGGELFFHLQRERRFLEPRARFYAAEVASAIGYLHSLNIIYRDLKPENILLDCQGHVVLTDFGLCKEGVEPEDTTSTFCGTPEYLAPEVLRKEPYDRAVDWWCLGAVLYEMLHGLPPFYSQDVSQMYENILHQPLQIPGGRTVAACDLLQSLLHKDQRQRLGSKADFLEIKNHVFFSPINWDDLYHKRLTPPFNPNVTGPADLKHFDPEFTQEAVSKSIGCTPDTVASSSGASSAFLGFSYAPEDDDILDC
Briefly: Inhibition of human full length SGK2 expressed in baculovirus assessed as substrate phosphorylation using fluorescence-labelled peptides as substrate at 420 uM after 90 mins by microfluidic peptide phosphorylation assay.

The target in test [5] is T3, Serine/threonine-protein kinase BRSK1 (Homo sapiens) (UniProt Q8TDC3).
T3 sequence (whole entry): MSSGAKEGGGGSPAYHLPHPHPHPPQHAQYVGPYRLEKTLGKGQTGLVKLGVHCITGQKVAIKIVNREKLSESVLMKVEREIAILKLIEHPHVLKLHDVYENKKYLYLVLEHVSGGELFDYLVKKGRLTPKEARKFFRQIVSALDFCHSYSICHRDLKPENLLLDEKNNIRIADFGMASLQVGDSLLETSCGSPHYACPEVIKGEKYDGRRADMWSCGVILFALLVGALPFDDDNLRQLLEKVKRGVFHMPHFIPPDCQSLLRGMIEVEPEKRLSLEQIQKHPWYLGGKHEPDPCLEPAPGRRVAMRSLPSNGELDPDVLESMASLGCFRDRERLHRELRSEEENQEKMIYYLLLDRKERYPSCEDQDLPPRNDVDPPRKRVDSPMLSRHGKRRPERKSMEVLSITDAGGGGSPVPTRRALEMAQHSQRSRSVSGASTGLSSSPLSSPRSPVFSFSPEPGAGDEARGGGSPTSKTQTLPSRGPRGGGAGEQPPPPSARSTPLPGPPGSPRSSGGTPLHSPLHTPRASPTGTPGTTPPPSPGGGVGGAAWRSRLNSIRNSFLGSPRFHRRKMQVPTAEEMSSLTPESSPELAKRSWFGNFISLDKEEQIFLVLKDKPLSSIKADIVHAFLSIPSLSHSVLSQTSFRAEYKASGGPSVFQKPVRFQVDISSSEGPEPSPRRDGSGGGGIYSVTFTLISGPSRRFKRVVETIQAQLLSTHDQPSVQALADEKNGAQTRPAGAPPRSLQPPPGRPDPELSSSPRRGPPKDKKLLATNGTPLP
Briefly: Inhibition of human full length BRSK1 expressed in baculovirus assessed as substrate phosphorylation using fluorescence-labelled peptides as substrate at 9 uM after 90 mins by microfluidic peptide phosphorylation assay.

The target in test [6] is Tyrosine-protein kinase HCK (Homo sapiens) (UniProt P08631). Description: Inhibition of human HCK catalytic domain expressed in baculovirus assessed as substrate phosphorylation using fluorescence-labelled peptides as substrate at 8 uM after 90 mins by microfluidic peptide phosphorylation assay.
Sequence of Tyrosine-protein kinase HCK (Homo sapiens) (P08631 2-526 limits assumed): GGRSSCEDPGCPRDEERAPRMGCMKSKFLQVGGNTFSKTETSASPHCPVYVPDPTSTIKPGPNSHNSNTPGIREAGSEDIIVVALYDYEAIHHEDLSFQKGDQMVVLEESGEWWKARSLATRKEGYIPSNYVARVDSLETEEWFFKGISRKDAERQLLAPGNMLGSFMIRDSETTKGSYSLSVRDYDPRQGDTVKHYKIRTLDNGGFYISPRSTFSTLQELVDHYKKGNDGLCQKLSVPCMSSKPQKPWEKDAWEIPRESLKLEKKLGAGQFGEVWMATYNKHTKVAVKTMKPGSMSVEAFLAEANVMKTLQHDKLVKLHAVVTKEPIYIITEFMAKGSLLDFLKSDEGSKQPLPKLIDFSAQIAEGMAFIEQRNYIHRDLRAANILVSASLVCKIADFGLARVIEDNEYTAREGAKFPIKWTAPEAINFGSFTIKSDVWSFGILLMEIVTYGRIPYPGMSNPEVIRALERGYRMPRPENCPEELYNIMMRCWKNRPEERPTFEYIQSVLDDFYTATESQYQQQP
In test [7] the target is T4, cGMP-dependent protein kinase 1 (Homo sapiens) (UniProt Q13976).
T4 sequence (whole entry): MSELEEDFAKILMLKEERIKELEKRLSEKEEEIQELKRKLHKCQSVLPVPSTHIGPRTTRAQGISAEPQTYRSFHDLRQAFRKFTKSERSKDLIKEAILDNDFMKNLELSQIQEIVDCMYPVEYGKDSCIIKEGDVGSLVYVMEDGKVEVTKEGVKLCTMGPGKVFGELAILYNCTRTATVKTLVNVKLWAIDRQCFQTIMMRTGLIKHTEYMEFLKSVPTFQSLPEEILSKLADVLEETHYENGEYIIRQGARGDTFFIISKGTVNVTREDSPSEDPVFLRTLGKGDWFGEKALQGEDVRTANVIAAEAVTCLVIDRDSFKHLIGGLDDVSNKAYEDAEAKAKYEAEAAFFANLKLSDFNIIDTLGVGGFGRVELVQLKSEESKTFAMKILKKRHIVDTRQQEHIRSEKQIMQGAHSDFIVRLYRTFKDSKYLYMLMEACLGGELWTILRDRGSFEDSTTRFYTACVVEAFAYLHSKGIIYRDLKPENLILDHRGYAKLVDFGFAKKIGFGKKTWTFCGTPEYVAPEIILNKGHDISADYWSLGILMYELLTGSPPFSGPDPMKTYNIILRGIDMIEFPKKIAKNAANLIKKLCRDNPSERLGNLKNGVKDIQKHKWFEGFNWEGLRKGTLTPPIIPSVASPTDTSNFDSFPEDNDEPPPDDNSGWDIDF
Briefly: Inhibition of human full length PKG-1beta expressed in baculovirus assessed as substrate phosphorylation using fluorescence-labelled peptides as substrate at 70 uM after 90 mins by microfluidic peptide phosphorylation assay.

Sequence of MAP kinase-activated protein kinase 2 (Homo sapiens) (P49137 whole entry, looked up): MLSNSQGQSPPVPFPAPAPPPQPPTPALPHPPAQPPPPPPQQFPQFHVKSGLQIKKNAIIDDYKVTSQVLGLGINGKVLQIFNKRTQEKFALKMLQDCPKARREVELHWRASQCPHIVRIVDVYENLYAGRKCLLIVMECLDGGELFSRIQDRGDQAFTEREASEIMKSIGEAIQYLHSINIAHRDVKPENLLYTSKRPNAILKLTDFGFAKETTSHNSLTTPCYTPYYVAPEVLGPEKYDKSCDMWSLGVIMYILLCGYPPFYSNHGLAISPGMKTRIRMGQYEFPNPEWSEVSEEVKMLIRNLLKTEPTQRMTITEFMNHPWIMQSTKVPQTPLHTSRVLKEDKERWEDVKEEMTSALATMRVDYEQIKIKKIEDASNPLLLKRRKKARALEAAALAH

Consider `Clc1ccc(C2(c3ccc(-c4ncnc5[nH]cnc45)cc3)CCNCC2)cc1`, for which the figures for the inhibition in test [1] and in test [2] were 10.5% and 33%, respectively.
In the case of `C[C@H](CN(C)C)Oc1nc(Nc2cc3cccc(Cl)c3cn2)cnc1C#N`, in test [3], the inhibition was determined as 0%.
As for `c1nc(N2CCOCC2)c2nc[nH]c2n1`, the inhibition in test [4] came to 76.5%.
For the compound `NCC1CN(c2ncnc3[nH]c4cnccc4c23)CCO1` (configuration not stated), in test [5], the inhibition turned out to be 29.5%.
Regarding `NCC1CCN(c2ncnc3[nH]ccc23)CC1`, the inhibition in test [6] was 19.5%.
Regarding `CNCc1ccc(-c2ncnc3[nH]cnc23)cc1`, in test [7], the inhibition was 95.5%.

The record behind these values is ChEMBL document CHEMBL3132769, “Fragment growing to retain or alter the selectivity of anchored kinase hinge-binding fragments” (Medchemcomm, 2014).
